# Test results: PMC9150124, “Design of a Potent, Selective, and Brain-Penetrant Inhibitor of Wnt-Deactivating Enzyme Notum by Optimization of a Crystallographic Fragment Hit” (Journal of Medicinal Chemistry, 2022)
# Assays:
# [1] = biological target: kinase named in conditions (Homo sapiens, UniProt O94768); test: SelectScreen kinase profiling, SSBK LanthaScreen Binding SP Technology; conditions: STK17B (DRAK2), 10 μM
# [2] = biological target: kinase named in conditions (Homo sapiens, UniProt O94921); test: as above; conditions: CDK14 (PFTK1)/cyclin Y, 10 μM
# [3] = biological target: kinase named in conditions (Homo sapiens, UniProt Q13163); test: as above; conditions: MAP2K5 (MEK5), 10 μM
# [4] = biological target: kinase named in conditions (Homo sapiens, UniProt Q00526); test: as above; conditions: CDK3/cyclin E1, 10 μM
# [5] = biological target: kinase named in conditions (Homo sapiens, UniProt Q16513); test: as above; conditions: PKN2 (PRK2), 10 μM
# [6] = biological target: kinase named in conditions (Homo sapiens, UniProt P53671); test: as above; conditions: LIMK2, 10 μM
# [7] = biological target: kinase named in conditions (Homo sapiens, UniProt O14936); test: as above; conditions: CASK, 10 μM
# [8] = biological target: kinase named in conditions (Homo sapiens, UniProt Q96S53); test: as above; conditions: TESK2, 10 μM
# [9] = biological target: kinase named in conditions (Homo sapiens, UniProt Q08345); test: as above; conditions: DDR1, 10 μM
# [10] = biological target: kinase named in conditions (Homo sapiens, UniProt P00519, H396P); test: as above; conditions: ABL1 H396P, 10 μM
# [11] = biological target: kinase named in conditions (Homo sapiens, UniProt P53667); test: as above; conditions: LIMK1, 10 μM
# [12] = biological target: kinase named in conditions (Homo sapiens, UniProt P27037); test: as above; conditions: ACVR2A, 10 μM
# [13] = biological target: kinase named in conditions (Homo sapiens, UniProt P10721, A829P); test: as above; conditions: KIT A829P, 10 μM
# [14] = biological target: kinase named in conditions (Homo sapiens, UniProt Q9UKE5); test: as above; conditions: TNIK, 10 μM
# [15] = biological target: kinase named in conditions (Homo sapiens, UniProt Q04771); test: as above; conditions: ACVR1 (ALK2), 10 μM
# [16] = biological target: kinase named in conditions (Homo sapiens, UniProt P10721, D816V); test: as above; conditions: KIT D816V, 10 μM
# [17] = biological target: kinase named in conditions (Homo sapiens, UniProt Q7L7X3); test: as above; conditions: TAOK1, 10 μM
# [18] = biological target: kinase named in conditions (Homo sapiens, UniProt P22607, G697C); test: as above; conditions: FGFR3 G697C, 10 μM
# [19] = biological target: kinase named in conditions (Homo sapiens, UniProt Q13555); test: as above; conditions: CAMK2G (CaMKII gamma), 10 μM
# [20] = biological target: kinase named in conditions (Homo sapiens, UniProt P15056); test: as above; conditions: BRAF, 10 μM
# [21] = biological target: kinase named in conditions (Homo sapiens, UniProt Q2M2I8); test: as above; conditions: AAK1, 10 μM
# [22] = biological target: kinase named in conditions (Homo sapiens, UniProt Q16832, T654M); test: as above; conditions: DDR2 T654M, 10 μM
# [23] = biological target: kinase named in conditions (Homo sapiens, UniProt Q16584); test: as above; conditions: MAP3K11 (MLK3), 10 μM
# [24] = biological target: kinase named in conditions (Homo sapiens, UniProt P42336, E545K); test: SelectScreen kinase profiling, SSBK Adapta SP Technology; format: biochemical; conditions: PIK3CA E545K/PIK3R1 (p110 alpha E545K/p85 alpha), 10 μM
# [25] = biological target: kinase named in conditions (Homo sapiens, UniProt P42336, E542K); test: as above; format: biochemical; conditions: PIK3CA E542K/PIK3R1 (p110 alpha E542K/p85 alpha), 10 μM
# [26] = biological target: kinase named in conditions (Homo sapiens, UniProt Q00534); test: as above; format: biochemical; conditions: CDK6/cyclin D1, 10 μM
# [27] = biological target: kinase named in conditions (Homo sapiens, UniProt Q9BTU6); test: as above; format: biochemical; conditions: PI4K2A (PI4K2 alpha), 10 μM
# [28] = biological target: kinase named in conditions (Homo sapiens, UniProt P42338); test: as above; format: biochemical; conditions: 10 μM
# [29] = biological target: kinase named in conditions (Homo sapiens, UniProt O00443); test: as above; format: biochemical; conditions: PIK3C2A (PI3K-C2 alpha), 10 μM
# [30] = biological target: kinase named in conditions (Homo sapiens, UniProt Q5S007); test: as above; format: biochemical; conditions: LRRK2 FL, 10 μM
# [31] = biological target: kinase named in conditions (Homo sapiens, UniProt Q8TCG2); test: as above; format: biochemical; conditions: PI4K2B (PI4K2 beta), 10 μM
# [32] = biological target: T1, NaV1.5 (Homo sapiens, UniProt Q14524); test: Safety47 cardiac sodium channel assay; format: cell-based
# T1 construct: Eurofins (DiscoverX Safety47)
# Method: Screening for off-target pharmacology across multiple drug target classes was performed in the DiscoverX Safety47 panel as the SAFETYscan E/IC50 ELECT service by Eurofins (San Diego CA, U.S.A.). Assay information and data are presented in the Supporting Information.
structure (smiles),measurement,setting,value
"FC(F)(F)c1c(Cl)ccc(-n2ccnn2)c1Cl [8l, 1-(2,4-Dichloro-3-(trifluoromethyl)phenyl)-1H-1,2,3-triazole]",inhibition at 10 µM,[1],14%
same,inhibition at 10 µM,[2],43%
same,inhibition at 10 µM,[3],-6%
same,inhibition at 10 µM,[4],4%
same,inhibition at 10 µM,[5],-4%
same,inhibition at 10 µM,[6],-3%
same,inhibition at 10 µM,[7],18%
same,inhibition at 10 µM,[8],6%
same,inhibition at 10 µM,[9],0%
same,inhibition at 10 µM,[10],7%
same,inhibition at 10 µM,[11],6%
same,inhibition at 10 µM,[12],4%
same,inhibition at 10 µM,[13],-3%
same,inhibition at 10 µM,[14],0%
same,inhibition at 10 µM,[15],12%
same,inhibition at 10 µM,[16],26%
same,inhibition at 10 µM,[17],0%
same,inhibition at 10 µM,[18],-1%
same,inhibition at 10 µM,[19],1%
same,inhibition at 10 µM,[20],7%
same,inhibition at 10 µM,[21],1%
same,inhibition at 10 µM,[22],-9%
same,inhibition at 10 µM,[23],3%
same,inhibition at 10 µM,[24],8%
same,inhibition at 10 µM,[25],6%
same,inhibition at 10 µM,[26],-3%
same,inhibition at 10 µM,[27],13%
same,inhibition at 10 µM,[28]; PIK3CB/PIK3R1 (p110 beta/p85 alpha),1%
same,inhibition at 10 µM,[28]; PIK3CB/PIK3R2 (p110 beta/p85 beta),15%
same,inhibition at 10 µM,[29],-10%
same,inhibition at 10 µM,[30],7%
same,inhibition at 10 µM,[31],16%
same,IC50,[32],> 30 µM
